In patent publication US10912832B2, “Multi-drug delivery system and uses thereof” (Academia Sinica, priority 2014, dated 2021):

Legend:
HLI mouse model [1] = experiment: Hindlimb ischemia (HLI) model, PEG-IGF-1: laser Doppler blood flow and limb appearance; format: in vivo, mice
Protocol: (§1) Microvascular blood flow was measured on a laser Doppler imager (Moor Instrument, UK). The blood flow before surgery, 1 day afterwards, every week for the following 4 weeks was recorded for both limbs and before sacrificing the mice. The data are presented as the blood flow ratio of the ischemia limb (left) to the normal limb (right).

[2] = tested on: apoptotic cells at the HA/AGP4 injection site in the ischemic leg muscle; experiment: HLI model, PEG-IGF-1: TUNEL assay of ischemic leg muscle
Excerpt: The HLI model was created by performing the left femoral artery and iliac artery ligation in mice and then cut to induce hindlimb ischemia (Limbourg et al., Nat. Protocols (2009) 4, 1737-1748.). The administrations for the experimental mice were divided into 3 parts: PEG-IGF-1, PEG-G-CSF, and the combined treatment. The treatment of PEG-IGF-1 and PEG-G-CSF are including five groups: Sham, HLI with the treatment of, 2% HA alone plus therapeutics or HA with AGP4 and followed by PBS or therapeutics. […]
The fixed distal calf and thigh muscles were deparaffinized, rehydrated and boiled in 10 mM sodium citrate (pH 6.0) for 10 minutes, followed by incubation with antibodies against tropomyosin (DHSB, Iowa city, Iowa, USA), WGA and isolectin (Invitrogen, Grand Island, N.Y., USA) at 4° C. overnight, and then incubated with Alexa Fluor 488- or 568-conjugated secondary antibodies (Invitrogen, Carlsbad, Calif., USA). After staining with DAPI (Sigma-Aldrich, St. Louis, Mo., USA), sections were mounted and observed under confocal microscope (LSM 700, Carl Zeiss MicroImaging, Germany) and fluorescence microscope. The capillary and arteriole densities at the border zone were measured and images were taken from 8 randomly-selected ischemic areas (200× magnification) in each sample and quantification was performed by manually counting each section; the 8 values were averaged. […]

HLI mouse model [3] = experiment: HLI model, PEG-G-CSF: laser Doppler blood flow and limb appearance; format: in vivo, mice; conditions: HA-alone + PEG-G-CSF
Protocol: as §1
(§2) Results are depicted in FIGS. 5B to 5C.

[4] = tested on: hematopoietic stem cells (HSCs) and endothelial progenitor cells (EPCs); experiment: HLI model, PEG-G-CSF: anti-CD34 / anti-CD133 staining of recruited cells; format: in vivo, mice; conditions: HA/AGP4 + PEG-G-CSF vs HA-alone+PEG-G-CSF and HA/AGP4+PBS
Excerpt: as §2

For “PEG-IGF-1: PEGylated Insulin Growth Factor-1”, the nail discoloration (HLI mouse model [1]; HA-alone + PEG-IGF-1) was “signs of nail discoloration”, the “blood flow of ischemic leg compared with sham group” value (HLI mouse model [1]; HA-alone i.m. + PEG-IGF-1 iv, Day 1 or Day 2) was “no significant improvement” and the “blood flow at the ischemic leg” value (HLI mouse model [1]; HA/AGP4 i.m. followed by PEG-IGF-1 iv (30 μg, three doses at 8 hrs interval)) was “did not improve the blood flow”. The nail discoloration (HLI mouse model [1]; PEG-IGF-1 administered after HA/AGP4) was “not obvious”, the ischemic damage (HLI mouse model [1]; PEG-IGF-1 injections after HA/AGP4) was “minimized the ischemic damage” and the “number of apoptotic cells (TUNEL)” value ([2]; HA-alone group, absence of AGP4) was “failed to reduce the number of apoptotic cells”. For the same molecule, the “number of apoptotic cells (TUNEL)” value ([2]; PEG-IGF-1 after administration of HA/AGP4) was “significant reduction in apoptotic cells”.

B1: PEG-G-CSF: PEGylated Granulocyte Colony-Stimulating Factor (protein, UniProt P09919 31-207, looked up)
Granulocyte …: TPLGPASSLPQSFLLKCLEQVRKIQGDGAALQEKLVSECATYKLCHPEELVLLGHSLGIPWAPLSSCPSQALQLAGCLSQLHSGLFLYQGLLQALEGISPELGPTLDTLQLDVADFATTIWQQMEELGMAPALQPTQGAMPAFASAFQRRAGGVLVASHLQSFLEVSYRVLRHLAQP
modifications: PEGylated
notes: PEGylated Granulocyte Colony-Stimulating Factor
For B1, the nail discoloration (HLI mouse model [3]) was “nail discoloration was seen” and the “number of recruited cells at the HA/AGP4 injection sites” value [4] was “increased the number of HSCs (CD133) and ECs (CD34)”.
